Consider ten compounds from patent publication US5886025A, “Anti-mitotic agents which inhibit tubulin polymerization” (Baylor University, priority 1997, dated 1999).

Series [1] relates to tubulin. The series can be described thus: tubulin polymerization assay. It counts as biochemical, bovine. Here is the method:
The ability of the various above described compounds to inhibit tubulin polymerization can be determined by in vitro assay. A suitable assay system is that described by Bai et al A method for purifying tubulin from bovine brain cells is described by Hamel and Lin.
IC50 values for tubulin polymerization were determined according to the procedure described in Bai et al. Purified tubulin is obtained from bovine brain cells as described in Hamel and Lin. Various amounts of inhibitor were preincubated for 15 minutes at 37° C. with purified tubulin. After the incubation period, the reaction was cooled and GTP was added to induce tubulin polymerization. Polymerization was then monitored in a Gilford spectrophotometer at 350 nm. The final reaction mixtures (0.25 ml) contained 1.5 mg/ml tubulin, 0.6 mg/ml microtubule-associated proteins (MAPs), 0.5 mM GTP, 0.5 mM MgCl2, 4% DMSO and 0.1M 4-morpholineethanesulfonate buffer (MES, pH 6.4).

For series [2], the system named is P388 leukemia cells. The series can be described thus: cytotoxic assay with P388 leukemia cells. The series is classed as cell-based. The note with it: for IC50: Mus musculus. The source says: The tubulin polymerization compounds can also be tested for their ability to inhibit tumor cell growth.
The subject of series [3] is tubulin. The note with it: cited from earlier work.
Series [4] relates to tubulin. The conditions noted are these: cis or Z form vs trans or E; cited from earlier work.
For series [5] the following is noted: treatment of Chagas' disease, cited from earlier work.
The subject of series [6] is estrogen. The note with it: cited from earlier work.
For series [7] the following is noted: relative to tamoxifen; cited from earlier work.
[8] abbreviates: P388, read-out: ED50 (effective dosage required to inhibit 50% of cell growth).

≈ marks a conversion by molar mass, not a printed value. Entries after “also recorded” stand apart in the source; their conditions may differ. Counter-ions that a name gives are not always drawn. Like-named read-outs stand apart in the source and are kept apart here.

In the case of `COc1ccc(-c2sc3cc(OC)ccc3c2C(=O)c2c(OC)cccc2OC)cc1` [2,6-dimethoxybenzoyl, 3-(2', 6'-dimethoxybenzoyl)-2-(4'-methoxyphenyl)-6-methoxybenzo[b]thiophene], the “inhibition of tubulin polymerization” value in series [1] is given as “no observable tubulin polymerization inhibition activity; also recorded: failed to inhibit tubulin polymerization”. Besides, the IC50 in series [2] (read-out: ED50 (effective dosage required to inhibit 50% of cell growth), P388 leukemia cells) is greater than 100 µg/mL. The “activity against P388 leukemia cells” value in series [2] (P388 leukemia cells) is reported as “failed to show measurable activity”.
`COc1cc2c(cc1O)CC[C@@H]1[C@@H]2CC[C@]2(C)[C@@H](O)CC[C@@H]12` [2-methoxyestradiol]: in series [3], the “inhibition of tubulin polymerization” value is given as “viable inhibitor of tubulin polymerization”.
In the case of `COc1ccc(-c2sc3cc(OC)ccc3c2C(=O)c2cc(OC)c(O)c(OC)c2)cc1` [3,5-dimethoxy-4-hydroxybenzoyl], in series [1], the “inhibition of tubulin polymerization” value was “no observable tubulin polymerization inhibition activity; also recorded: failed to inhibit tubulin polymerization”. Further, the IC50 in series [2] (setting [8]) is greater than 100 µg/mL. The “activity against P388 leukemia cells” value in series [2] (P388 leukemia cells) is “failed to show measurable activity”.
For `COc1ccc(-c2sc3cc(OC)ccc3c2C(=O)c2cc(OC)cc(OC)c2)cc1` [3,5-dimethoxybenzoyl, 3-(3',5'-dimethoxybenzoyl)-2-(4'-methoxyphenyl)-6-methoxybenzo[b]thiophene] the same measures were “no observable tubulin polymerization inhibition activity; also recorded: failed to inhibit tubulin polymerization”, greater than 100 µg/mL and “failed to show measurable activity”.
On to `COc1ccc(/C=C\c2cc(OC)c(OC)c(OC)c2)cc1N(Cc1ccccc1)Cc1ccccc1` [5-[(Z)-2-(3',4',5'-trimethoxyphenyl)ethenyl]-2-methoxy-N,N-bis-(phenylmethyl)aniline, reference compound], for which, in series [2] (setting [8]), the IC50 is 33.9 µg/mL (≈ 68.4 µM).
Consider `COc1ccc(/C=C\c2cc(OC)c(OC)c(OC)c2)cc1O` [Combretastatin A-4], for which the “binding affinity for tubulin, cis (Z) form compared to trans (E) counterpart” value in series [4] is given as “much higher binding affinity for tubulin”.
Consider `O=C(Cn1ccnc1[N+](=O)[O-])NCc1ccccc1` [benznidazole], for which, in series [5], the “genotoxicity in children” value is “may also cause genotoxicity in children”; the “adverse effects” value is “thrombocytopenic purpura and polyneropathy”.
Take `CC1CS(=O)(=O)CCN1/N=C/c1ccc([N+](=O)[O-])o1` (stereo not drawn) [nifurtimox]: in series [5], the “genotoxicity in children” value was “may also cause genotoxicity in children”; the “adverse effects” value was “thrombocytopenic purpura and polyneropathy”.
Take `CC/C(=C(\c1ccccc1)c1ccc(OCCN(C)C)cc1)c1ccccc1` [tamoxifen]: in series [6], the “intrinsic estrogen agonist properties” value is given as “retain some intrinsic estrogen agonist properties”.
As for `COc1ccc(C2=C(C(=O)c3ccc(OCCN4CCCC4)cc3)c3ccccc3CC2)cc1` [trioxifene mesylate], the “anti-tumor effects compared with tamoxifen” value in series [7] is “anti-tumor effects at the same or higher level as tamoxifen”.
